# In US20250382261A1 (The Broad Institute, Inc., priority 2021, published 2025):
# Key:
# [1] = target: hERG channel (Homo sapiens, UniProt Q12809)
# Description: hERG channel assays. All assays were performed by Cyprotex Ltd. using an eCiphrCardio assay. CDI iCell® cardiomyocytes are plated onto fibronectin coated 48 well microelectrode array plates at a density of 50,000 cells per well in 5 μl iCell® plating medium. After 2 h, 300 μl of maintenance medium is added to each well. The plate is incubated for 2 days, and then the medium is completely changed to 500 μl of maintenance medium. The cells are incubated for an additional 3 days until a stable beating phenotype is achieved and the cells are ready for drug treatment. The medium is changed the day before dosing. […] The activity of cells in a 48-well microelectrode array is recorded prior to treatment (baseline) and at 1- and 48-hours post-treatment using the Axion Biosystems Maestro MEA system. The recording conditions are at 37° C. with 5% CO2 using the standard cardiac settings on the Axion Biosystems Maestro Axis software version 2.1. The results are analyzed with the Axion Biosystem software.
# [2] = target: T1, CYP3A4 (Homo sapiens, UniProt P08684); test: P450 inhibition; assay type: in vitro ADME; details: read-out: P450 Inhibition CYP 3A4 (IC50)
# T1 construct: Cyprotex Ltd. (contract laboratory that ran the assay)
# Description: (§1) P450 inhibition. An 8-point dose-response of P35 (0, 0.1, 0.25, 1, 2.5, 10, 25 μM) was tested against the following cytochrome P450 (CYP) isoforms CYP3A4, CYP2C9, CYP2D6, CYP1A2, and CYP2C19. Reduction in metabolite formation was quantified using LC-MS/MS (with the exception of ethoxyresorufin for CYP1A2) to calculate an IC50 value. This assay was performed by Cyprotex Ltd.
# [3] = target: T2, CYP2D6 (Homo sapiens, UniProt P10635); test: P450 inhibition; assay type: in vitro ADME; details: read-out: P450 Inhibition CYP 2D6 (IC50)
# T2 construct: Cyprotex Ltd. (contract laboratory that ran the assay)
# Description: as §1
# [4] = target: T3, CYP1A2 (Homo sapiens, UniProt P05177); test: P450 inhibition; assay type: in vitro ADME; details: read-out: P450 Inhibition CYP 1A2 (IC50)
# T3 construct: Cyprotex Ltd. (contract laboratory that ran the assay)
# T3 sequence (P05177 1-516): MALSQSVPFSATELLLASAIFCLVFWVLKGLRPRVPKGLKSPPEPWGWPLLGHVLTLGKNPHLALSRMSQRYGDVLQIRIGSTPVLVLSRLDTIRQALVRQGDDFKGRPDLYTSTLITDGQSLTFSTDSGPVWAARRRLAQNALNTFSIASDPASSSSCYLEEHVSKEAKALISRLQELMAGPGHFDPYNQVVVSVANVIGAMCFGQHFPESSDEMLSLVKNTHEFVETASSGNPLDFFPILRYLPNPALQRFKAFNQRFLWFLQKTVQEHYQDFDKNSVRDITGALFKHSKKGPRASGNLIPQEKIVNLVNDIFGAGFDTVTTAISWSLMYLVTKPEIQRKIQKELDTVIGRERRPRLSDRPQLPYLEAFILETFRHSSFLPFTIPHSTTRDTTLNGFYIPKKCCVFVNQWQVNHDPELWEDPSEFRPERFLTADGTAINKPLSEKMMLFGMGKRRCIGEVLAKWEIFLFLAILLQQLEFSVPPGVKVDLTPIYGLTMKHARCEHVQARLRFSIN
# Description: as §1
# [5] = target: T4, CYP2C19 (Homo sapiens, UniProt P33261); test: P450 inhibition; assay type: in vitro ADME; details: read-out: P450 Inhibition CYP 2C19 (IC50)
# T4 construct: Cyprotex Ltd. (contract laboratory that ran the assay)
# Description: as §1
# [6] = Plasma protein binding (equilibrium dialysis); assay type: in vitro ADME
# Description: Plasma protein binding. Protein binding of P35 in mouse/rat/dog/human plasma was determined using an equilibrium dialysis method. The fraction of compound unbound to proteins was calculated with LC-MS/MS. This assay was performed in duplicate by Cyprotex Ltd.
# [7] = test system: P. aeruginosa (PA01); test: Checkerboard potentiation assay with novobiocin; assay type: cell-based
# Description: (§2) Bacterial strains and culture conditions. The following bacterial strains were used within this study; A. baumannii (ATCC 17978), K. pneumoniae (ATCC 43816), K. pneumoniae (ATCC 43816, expressing pGDP2:mcr-1), P. aeruginosa (PA01). Bacterial growth was in cation-adjusted Mueller-Hinton broth (MHB) at 37° C., and inoculum was prepared according to CLSI protocol (CLSI 2015).
# (§3) Potentiation assays. Checkerboard analyses were conducted with each drug serially diluted at eight concentrations to create an 8×8 matrix. At least two biological replicates were done for each combination, and the means were used for FIC calculation. The FIC for each drug was calculated by dividing the concentration of the drug in the presence of codrug in a combination for a well showing <10% growth by the MIC for that drug alone. The FIC index (FICI) is the sum of the two FICs, with an FIC index≤0.5 deemed synergistic.
# (§4) To probe the spectrum of activity of the present analogs beyond A. baumannii, their interactions with novobiocin were assessed against the high-priority Gram-negative pathogens Klebsiella pneumoniae and P. aeruginosa (FIG. 5).
# [8] = test system: K. pneumoniae (ATCC 43816); test: Checkerboard potentiation assay with novobiocin; assay type: cell-based
# Description: as §2, §3, §4
# [9] = test system: A. baumannii (ATCC 17978); test: Checkerboard potentiation assay with novobiocin; assay type: cell-based
# Description: as §2, §3
# [10] = in vivo, 1 mg/kg
# Description: Plasma samples were taken from 3 mice per time point (5, 15, 30 min; 1, 2, 4, 6 and 8 h post-dose). An aliquot of 2 μL sample was protein precipitated with 60 μL methanol, the mixture was vortex-mixed well and centrifuged at 13000 rpm for 10 min at 4° C. 2 μL supernatant was injected for LC-MS/MS analysis. The mean plasma concentration and the standard deviation from all 3 animals within each time point were calculated. PK parameters were calculated with a non-compartmental analysis. The mean plasma concentrations from all 3 mice at each time point were used in the calculations.
# [11] = HEK293 cytotoxicity assay (Cell Titer Glo); assay type: cell-based; details: human, HEK293T Cytotoxicity (IC50, μg/mL)
# Description: (§5) Cytotoxicity Assays. HEK293 (ATCC CRL 1573) cells were left to adhere for 18 h at 7.5×10^3 cells per well in DMEM containing 10% FBS and 2 mM L-glutamine. Compound was added directly into the well. After 48 h of treatment Promega Cell Titer Glo 2.0® was added, shaken for 10 min, and luminescence read (Biotek Neo). AC50 values were calculated using a four-parameter logistic curve in GraphPad Prism 9.
# (§6) Focusing on only the analogs that retained synergistic activity with novobiocin (FICI≤0.5), half-maximal activity (AC50) values were calculated against HEK293 cells using a CellTiter-Glo® based assay to approximate cell viability. […] Specifically, the FICI value for both P35 and P36 was 0.094 against A. baumannii, while their AC50 values were 235 μg/mL and 200 μg/mL, respectively.
# [12] = test system: HEK293 (ATCC CRL 1573) cells; test: HEK293 cytotoxicity assay (Cell Titer Glo); assay type: cell-based; details: human, 48 h
# Description: as §5, §6
# Sequence of hERG channel (Q12809 whole entry): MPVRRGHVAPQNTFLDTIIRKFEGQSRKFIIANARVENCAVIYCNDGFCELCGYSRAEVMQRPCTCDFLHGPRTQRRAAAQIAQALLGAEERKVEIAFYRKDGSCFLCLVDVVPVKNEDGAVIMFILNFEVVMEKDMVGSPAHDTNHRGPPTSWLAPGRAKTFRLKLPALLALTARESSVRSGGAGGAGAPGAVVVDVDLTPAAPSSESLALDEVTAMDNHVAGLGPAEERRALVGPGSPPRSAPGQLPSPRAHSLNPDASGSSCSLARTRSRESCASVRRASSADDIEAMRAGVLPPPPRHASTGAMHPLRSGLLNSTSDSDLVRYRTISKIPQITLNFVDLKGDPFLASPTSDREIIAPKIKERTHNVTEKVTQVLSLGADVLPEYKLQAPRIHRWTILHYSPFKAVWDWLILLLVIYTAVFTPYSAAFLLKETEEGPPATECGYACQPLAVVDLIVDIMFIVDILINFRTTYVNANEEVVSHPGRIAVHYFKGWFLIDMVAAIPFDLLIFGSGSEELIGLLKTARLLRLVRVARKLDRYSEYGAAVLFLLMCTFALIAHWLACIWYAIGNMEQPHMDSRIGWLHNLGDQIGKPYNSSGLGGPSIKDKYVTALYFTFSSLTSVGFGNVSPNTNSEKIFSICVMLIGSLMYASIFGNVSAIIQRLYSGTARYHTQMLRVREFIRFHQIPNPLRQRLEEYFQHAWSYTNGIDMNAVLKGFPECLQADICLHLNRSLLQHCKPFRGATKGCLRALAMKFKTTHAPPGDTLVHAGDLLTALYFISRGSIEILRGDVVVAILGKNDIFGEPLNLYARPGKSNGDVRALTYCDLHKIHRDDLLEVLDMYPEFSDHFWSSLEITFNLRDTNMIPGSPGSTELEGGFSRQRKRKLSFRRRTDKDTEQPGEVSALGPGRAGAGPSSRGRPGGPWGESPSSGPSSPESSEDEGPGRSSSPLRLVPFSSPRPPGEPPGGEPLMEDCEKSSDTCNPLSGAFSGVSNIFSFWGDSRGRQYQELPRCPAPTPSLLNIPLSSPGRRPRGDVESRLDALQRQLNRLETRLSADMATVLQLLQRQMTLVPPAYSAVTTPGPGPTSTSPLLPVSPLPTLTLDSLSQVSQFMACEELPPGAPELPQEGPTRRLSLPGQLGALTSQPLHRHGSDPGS
# T2 sequence (P10635 whole entry): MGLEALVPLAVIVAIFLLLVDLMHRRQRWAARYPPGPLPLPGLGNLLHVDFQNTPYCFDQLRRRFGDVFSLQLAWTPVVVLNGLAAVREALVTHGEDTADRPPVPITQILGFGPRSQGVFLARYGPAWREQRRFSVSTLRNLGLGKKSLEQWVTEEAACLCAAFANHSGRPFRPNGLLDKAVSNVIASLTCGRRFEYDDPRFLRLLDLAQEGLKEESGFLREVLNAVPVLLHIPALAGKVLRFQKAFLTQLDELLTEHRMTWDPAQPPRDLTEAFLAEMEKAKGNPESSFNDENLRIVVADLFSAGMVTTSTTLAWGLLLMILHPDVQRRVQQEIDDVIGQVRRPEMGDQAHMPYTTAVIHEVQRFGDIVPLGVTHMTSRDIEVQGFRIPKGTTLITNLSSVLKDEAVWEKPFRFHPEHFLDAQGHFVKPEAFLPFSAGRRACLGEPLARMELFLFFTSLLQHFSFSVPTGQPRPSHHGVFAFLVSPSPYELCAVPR
# T4 sequence (P33261 whole entry): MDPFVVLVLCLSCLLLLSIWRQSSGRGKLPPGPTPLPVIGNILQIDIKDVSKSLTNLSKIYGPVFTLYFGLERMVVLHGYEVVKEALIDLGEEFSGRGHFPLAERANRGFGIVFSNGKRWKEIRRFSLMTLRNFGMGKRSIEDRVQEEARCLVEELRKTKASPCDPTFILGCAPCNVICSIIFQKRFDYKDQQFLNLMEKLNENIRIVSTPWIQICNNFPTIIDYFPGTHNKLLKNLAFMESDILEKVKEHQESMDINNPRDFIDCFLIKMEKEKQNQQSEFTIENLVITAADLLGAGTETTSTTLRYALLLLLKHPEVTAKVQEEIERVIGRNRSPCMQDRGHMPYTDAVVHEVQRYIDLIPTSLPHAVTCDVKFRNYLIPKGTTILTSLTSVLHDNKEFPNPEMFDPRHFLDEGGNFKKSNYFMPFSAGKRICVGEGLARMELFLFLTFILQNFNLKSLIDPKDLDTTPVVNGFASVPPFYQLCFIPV
# T1 sequence (P08684 whole entry): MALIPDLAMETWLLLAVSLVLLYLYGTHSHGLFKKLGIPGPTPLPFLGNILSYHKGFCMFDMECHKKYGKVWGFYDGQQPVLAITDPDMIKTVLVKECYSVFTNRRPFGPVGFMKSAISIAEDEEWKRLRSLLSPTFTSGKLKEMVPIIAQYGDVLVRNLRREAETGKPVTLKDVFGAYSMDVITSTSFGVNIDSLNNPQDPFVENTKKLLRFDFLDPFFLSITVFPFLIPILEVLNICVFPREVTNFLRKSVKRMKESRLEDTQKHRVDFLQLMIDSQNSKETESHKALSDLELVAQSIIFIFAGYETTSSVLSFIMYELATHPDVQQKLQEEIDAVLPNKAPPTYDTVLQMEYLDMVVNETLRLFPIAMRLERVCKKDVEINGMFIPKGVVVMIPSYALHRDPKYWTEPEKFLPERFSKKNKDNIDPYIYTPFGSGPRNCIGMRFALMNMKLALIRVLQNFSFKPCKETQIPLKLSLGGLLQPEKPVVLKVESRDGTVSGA
smiles,measurement,setting,value
N=C(N)c1ccc(OCCN(CCOc2ccc(C(=N)N)cc2)c2ccccc2)cc1 [Analog P35],Effect on beating at 10 μM,[1],loss of all detectable beating
same,Direct hERG channel inhibition 1 h after exposure,"[1]; human, 1 h",Neither pentamidine nor P35 directly inhibited the hERG channel
same,IC50,[2],> 50 µM
same,IC50,[3],14.8 µM
same,IC50,[4],> 50 µM
same,IC50,[5],> 50 µM
same,fraction unbound,[6]; dog plasma,0.126
same,fraction unbound,[6]; human plasma,0.13
same,fraction unbound,[6]; mouse plasma,0.169
same,fraction unbound,[6]; rat plasma,0.077
same,FICI PA,[7],0.3125
same,FICI KP,[8],0.12
same,FICI with novobiocin in presence of 20 mM Mg2+,[9]; 20 mM Mg2+ added to growth media,0.56
same,FICI AB,[9]; with novobiocin,0.094
same,AUCExtra (%),"[10]; female, C57BL/6, mouse, iv",6.74%
same,AUMCExtra (%),"[10]; female, C57BL/6, mouse, iv",37.7%
same,Tlast,"[10]; female, C57BL/6, mouse, iv",8.00 h
same,Adverse effects after single intravenous dose,[10]; mouse,no adverse effects
same,IC50 at 48 h,[11],235 µg/mL
same,"HEK293T Cytotoxicity (IC50, μg/mL)",[12],235.4 µg/mL
